Test results taken from PubChem BioAssay (NCI).
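Results reflect a 48-hour exposure of cells in 96-well plates to compound at five concentrations. TGI denotes the concentration required for complete inhibition of growth.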

Key:
Test in all cases: NCI tumour cell line growth inhibition, 48 h
ACHN renal = system: ACHN renal
HCT-116 colon = system: HCT-116 colon
HOP-92 NSCLC = system: HOP-92 NSCLC
HT29 colon = system: HT29 colon
KM12 colon = system: KM12 colon
M14 melanoma = system: M14 melanoma
MDA-MB-435 = system: MDA-MB-435
MOLT-4 leukemia = system: MOLT-4 leukemia
NCI-H23 lung = system: NCI-H23 lung
NCI-H522 lung = system: NCI-H522 lung
SN12C renal = system: SN12C renal
TK-10 renal = system: TK-10 renal

SMILES | TGI (ACHN renal) [µM] | TGI (HCT-116 colon) [µM] | TGI (HOP-92 NSCLC) [µM] | TGI (HT29 colon) [µM] | TGI (KM12 colon) [µM] | TGI (M14 melanoma) [µM] | TGI (MDA-MB-435) [µM] | TGI (MOLT-4 leukemia) [µM] | TGI (NCI-H23 lung) [µM] | TGI (NCI-H522 lung) [µM] | TGI (SN12C renal) [µM] | TGI (TK-10 renal) [µM]
CCOP(=O)(OCC)C(Cc1ccccc1)N=C(c1ccccc1)c1ccccc1 (stereo unspecified) | 28.6 | 30.8 | 27.5 | 27.6 | 32.2 | 30.4 | 27.8 | 25.8 | 28.6 | 29.6 | 35.2 | 23.6
O=C(c1ccco1)N1CCN(C(=O)c2ccco2)C1=S | 22.3 | 23.2 | 23.6 | 24.2 | 15 | 40.5 | 14.1 | 24.5 | 50.3 | 19.4 | 16.4 | 19.8
CCOC(=O)C1(Cc2ccccc2)CCN(C(=O)c2ccccc2)C2C1C2(Cl)Cl (stereo unspecified) | 54.8 | 30 | 55.6 | 34.8 | 94.9 | 34.6 | 48.3 | 52.9 | 77 | 42.5 | 32.4 | 59.8
COc1cc(/C=C2\CCc3cc(OC)c(OC)cc3C2=O)cc(OC)c1 | > 100 | > 42.3 | > 100 | > 100 | > 51.7 | > 100 | > 100 | > 100 | > 86.7 | > 42.3 | 38.2 | > 100
CC1(C)N=C(N)N=C(N)N1c1ccc(CCCCc2ccc(Cl)cc2Cl)cc1 | 16.1 | 15.1 | 18 | 13 | 2.19 | 14 | 13.9 | > 100 | 11.9 | 14.3 | 12.7 | 15.7
Cc1[nH]n(-c2nc(O)c(C)c(=O)[nH]2)c(=O)c1CCO | > 100 | > 100 | > 100 | > 100 | > 100 | > 100 | > 100 | > 100 | > 100 | > 100 | > 100 | > 100
CCO[C@H]1C[C@@H](c2ccccc2)[C@]2(C)C[C@H](C(=O)OC)ON2O1 | > 100 | > 100 | > 100 | > 100 | > 100 | > 100 | > 100 | > 100 | > 100 | > 100 | > 100 | > 100
OCCCN(CCc1ccc(Cl)c(Cl)c1)CCN1CCCC1 | > 100 | > 100 | > 100 | > 100 | > 100 | 32.9 | 53.4 | > 100 | > 100 | 54.5 | > 100 | > 100
COC(=O)[C@H]1ON2O[C@@H](O[C@H]3CCCC[C@@H]3C(C)(C)c3ccccc3)C[C@@H]3CC[C@H]1[C@@]32C | > 100 | > 100 | > 100 | > 100 | > 100 | > 100 | > 100 | > 100 | > 100 | > 100 | > 100 | > 100
C/C=C/[C@@H]1O[C@H](CC#C[Si](C)(C)C)[C@@]2(C=O)C(C)=CC[C@H](C(C)C)[C@@H]12 | 39.9 | 36.9 | 41.4 | 46.2 | 40.8 | 37.2 | 42.5 | 34.5 | 49.6 | 4.78 | 34.8 | 31.5
CCOC(=O)c1cc2cc(CSc3ccccc3)ccc2oc1=O | > 100 | > 100 | > 100 | > 100 | > 100 | > 100 | > 100 | > 100 | > 100 | > 100 | > 100 | > 100
CCOC(=O)NC(N(C)C(C(C)C)P(=O)(OCC)OCC)(C(F)(F)F)C(F)(F)F (stereo unspecified) | > 100 | > 100 | > 100 | > 100 | > 100 | > 100 | > 100 | > 100 | > 100 | > 100 | > 100 | > 100
COc1ccc(NC(C)=O)c(C(=O)CCNC(C)=O)c1 | > 100 | > 100 | > 100 | > 100 | > 100 | > 100 | > 100 | > 100 | > 100 | > 100 | > 100 | > 100
O=C(NCCCCNCCCNC(=O)C(F)(F)F)C(F)(F)F | > 100 | > 100 | > 100 | > 100 | > 100 | > 100 | > 100 | > 100 | > 100 | > 100 | > 100 | > 100
CC1(C)OC2CN(C(=O)OCc3ccccc3)C(CO)C2O1 (stereo unspecified) | > 100 | > 100 | > 100 | > 100 | > 100 | > 100 | > 100 | > 100 | > 100 | > 100 | > 100 | > 100
CNC=O | > 10000 | > 10000 | > 10000 | > 10000 | > 10000 | > 10000 | > 10000 | > 10000 | > 10000 | > 10000 | > 7740 | > 10000
Cc1ccc(N2C(=O)CC(=O)N(NC(=O)C(C)Oc3ccccc3C)C2=S)cc1 (stereo unspecified) | > 100 | > 100 | > 100 | > 100 | > 100 | > 100 | > 100 | > 100 | > 100 | > 100 | > 100 | > 100
O=C(O)c1cc2c(cc1S(=O)(=O)O)C1C(C3C2C2(Cl)C(Cl)=C(Cl)C3(Cl)C2(Cl)Cl)C2(Cl)C(Cl)=C(Cl)C1(Cl)C2(Cl)Cl (stereo unspecified) | > 100 | 32.3 | 85.2 | 48 | > 100 | > 100 | > 100 | > 100 | 73.3 | 46.8 | 46.4 | > 100
COc1ccc2c(-c3ccc(O)cc3)c(Oc3ccccc3)c(=O)oc2c1 | > 85.9 | > 93.5 | > 87.8 | 98.2 | > 100 | > 100 | > 100 | > 100 | > 100 | > 100 | > 42.1 | 18.1
COc1ncc(C#CC(=O)c2ccccc2OC)c(OC)n1 | 3.27 | 9.72 | 4.47 | 3.84 | 18.4 | 5.05 | 8.44 | 1.61 | 7.56 | 2.21 | 1.91 | 2.62
O=C(/C(Cl)=C/c1ccccc1)c1ccccc1 | 4.81 | 2.78 | 12.9 | 3.52 | 14.9 | 4.98 | 9.52 | > 21.3 | 26 | 3.76 | 3.92 | 11.7
COc1ccc(C2c3cc4c(cc3OC(N3CCOCC3)C2C)OCO4)c(OC)c1 (stereo unspecified) | 93.8 | 15.8 | 15.9 | 13.2 | 34 | 21.2 | 8.83 | 31.9 | > 67.9 | 8.95 | 65.9 | 69.6
O=C1CNc2cc(N3CCN(c4cccc(C(F)(F)F)c4)CC3)ccc2N1 | > 100 | > 100 | > 78.8 | > 100 | > 100 | > 100 | > 100 | > 84.3 | > 100 | 46 | > 100 | > 100
CC(=O)NC1CCC(NC(=O)OC(C)(C)C)C(NC(=O)OC(C)(C)C)C1 (stereo unspecified) | > 100 | > 100 | > 100 | > 100 | > 100 | > 100 | > 100 | > 100 | > 100 | > 100 | > 100 | > 100
CC1=NN(C(=O)CC(=O)Nc2cccc(Cl)c2)C(=O)C1N=Nc1ccc(S(=O)(=O)c2ccc(N=NC3C(=O)N(C(=O)CC(=O)Nc4cccc(Cl)c4)N=C3C)cc2)cc1 (stereo unspecified) | > 100 | > 100 | > 100 | > 100 | > 100 | > 100 | > 100 | > 100 | > 100 | > 100 | > 100 | > 100
CNC(=O)CNC(=O)CCC(=O)N(C)C | > 100 | > 100 | > 100 | > 100 | > 100 | > 100 | > 100 | > 100 | > 100 | > 100 | > 100 | > 100
C=CC1(CBr)CCC(C(C)(C)Br)O1 (stereo unspecified) | 30.2 | 18.5 | 28.6 | 14.4 | 26.1 | 27.7 | 26.6 | 7.06 | 19.9 | 7.14 | 33.1 | 28.5
CCOC(=O)CC[C@@H](NC(=O)c1ccc(NCc2ccc3nc(OC)c(OC)nc3c2)cc1)C(=O)OCC | 58.2 | > 100 | 36.2 | > 100 | > 100 | 32 | 99.2 | > 31.6 | > 100 | 50.5 | > 100 | > 100
